Like-named read-outs stand apart in the source and are kept apart here.
Columns and labels:
[1] = test system: Phosphorylation of ERK1/2 in A549 cells; experiment: Phospho-ERK1/2 MSD Assay (A549); format: cell-based; settings: Homo sapiens, A549, 4 h, read-out: pERK IC50 (4 h, A549), 4 h compound treatment
[2] = molecular target: GDP-bound KRAS protein (aa 1-169), containing both G12C and C118A amino acid substitutions (Homo sapiens (Human), UniProt P01116, C118A/G12C); experiment: Coupled Nucleotide Exchange Assay; format: biochemical
Description: For compounds in Table 9, the following assay conditions were employed:
Coupled Nucleotide Exchange Assay:
The assay plates were then read on a PerkinElmer EnVision Multilabel Reader, using AlphaScreen® technology, and data were analyzed using a 4-parameter logistic model to calculate IC50 values.

[3] = first Coupled Exchange column, compound pre-incubation probably 5 min (rest of head not shown; b435 lists 5 min, 2 hours or 20 hours), read-out: Coupled Exchange IC50
[4] = read-out: Coupled Exchange IC50 (2 h), 2 h compound pre-incubation
[5] = read-out: Coupled Exchange IC50 (20 h), 20 h compound pre-incubation
[6] = third Coupled Exchange column, compound pre-incubation probably 20 hours (rest of head not shown; b435 lists 5 min, 2 hours or 20 hours), read-out: Coupled Exchange IC50
[7] = read-out: Coupled Exchange IC50 (5 min), 5 min compound pre-incubation
[8] = second Coupled Exchange column, read-out: Coupled Exchange IC50

Chain of GDP-bound KRAS protein (aa 1-169), containing both G12C and C118A amino acid substitutions (P01116 other isoform, or with tags, fused parts or gaps G12C/C118A): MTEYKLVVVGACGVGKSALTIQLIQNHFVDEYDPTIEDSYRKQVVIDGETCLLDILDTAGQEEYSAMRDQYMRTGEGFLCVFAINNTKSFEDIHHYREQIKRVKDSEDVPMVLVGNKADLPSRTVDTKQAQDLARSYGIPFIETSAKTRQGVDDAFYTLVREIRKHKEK

Row | SMILES | IC50 [2, 3] [µM] | IC50 [2, 4] [µM] | IC50 [2, 5] [µM] | also measured
1 | C=CC(=O)N1CC(NC(=O)Cn2c(C3CC3)c(C(=O)N3CCc4c(cccc4OC)C3)c3cc(Cl)cc(C)c32)C1 [Example 1-7, 2-(5-Chloro-2-cyclopropyl-3-((5-methoxy-3,4-dihydro-2(1H)-isoquinolinyl)carbonyl)-7-methyl-1H-indol-1-yl)-N-(1-(2-propenoyl)-3-azetidinyl)acetamide] |  |  |  | IC50 [1]: 60.4 µM
2 | C=CC(=O)N1CC(NC(=O)Cn2cc(C(=O)N3CCc4c(Cl)cccc4C3)c3cc(Br)ccc32)C1 [Example 109] |  |  |  | IC50 [1]: 21.3 µM
3 | C=CC(=O)N1CC(NC(=O)Cn2c(C)c(-c3cnccc3C3=CCOCC3)c3cc(Cl)cc(C)c32)C1 [Example 341] | 2.44 |  |  | 
4 | C=CC(=O)N1CC(NC(=O)Cn2ccc3cc(F)ccc32)C1 [Example 198] |  | > 250 | > 250 | 
5 | C=CC(=O)N1CC(NC(=O)Cn2cc(CC(=O)N3CCOC4CC(N(C)C)CCC43)c3cc(Br)ccc32)C1 (stereo not shown) [Example 329] | 85.8 |  |  | 
6 | C=CC(=O)N1CC(NC(=O)Cn2c(C)c(-c3cnccc3C(C)C)c3cc(Cl)cc(C)c32)C1 [Example 325] | 1.55 |  |  | 
7 | C=CC(=O)N1CC(NC(=O)Cn2ccc3cccc(Cl)c32)C1 [Example 203] |  | > 250 | > 250 | 
8 | C=CC(=O)N1CC(NC(=O)Cn2c(C)c(-c3cncnc3C3CCCCC3)c3cc(Cl)cc(C)c32)C1 [Example 342] | 0.66 |  |  | 
9 | C=CC(=O)N1CC(NC(=O)Cn2cc(Cc3ccccc3)c3ccccc32)C1 [Example 213] |  | 31.1 | 5.09 | 
10 | C=CC(=O)N1CC(N(C)C(=O)Cn2ccc3c(C)c(Br)ccc32)C1 [Example 350] | 237 |  |  | IC50 [2, 6]: 1.53 µM
11 | C=CC(=O)N1CC(NC(=O)Cn2cc(-c3cccc(-c4ccccc4)c3)c3cc(Br)cc(C)c32)C1 [Example 265] |  | > 250 | 3.24 | 
12 | C=CC(=O)N1CC(NC(=O)Cn2c3ccc(Br)cc3c3cc(Br)ccc32)C1 [Example 193] |  | > 250 | 0.39 | 
13 | C=CC(=O)N1CC(NC(=O)Cn2ccc3cc(OC)ccc32)C1 [Example 236] |  | > 250 | > 250 | 
14 | C=CC(=O)N1CC(NC(=O)Cn2c(-c3ccccc3)cc3cc(Br)ccc32)C1 [Example 243] |  | 18.2 | 2.82 | 
15 | C=CC(=O)N1CC(C)(NC(=O)Cn2ccc3cc(Br)ccc32)C1 [Example 352] | > 250 |  |  | IC50 [2, 6]: 25 µM
16 | C=CC(=O)N1CC(NC(=O)Cn2ccc3cc(SC)ccc32)C1 [Example 266] |  | > 250 | > 62.5 | 
17 | C=CC(=O)N1CC(n2nncc2Cn2ccc3cc(Br)ccc32)C1 [Example 359] | > 250 |  |  | IC50 [2, 6]: 7.66 µM
18 | C=CC(=O)N1CC(NC(=O)Cn2c3ccc(Br)cc3c3ccncc32)C1 [Example 259] |  | 26.8 | 2.88 | 
19 | C=CC(=O)N1CC(NC(=O)Cn2cc(-c3cccc(C#N)c3)c3cc(Br)ccc32)C1 [Example 216] |  | 12.9 | 3 | 
20 | C=CC(=O)N1CC(NC(=O)Cn2cc(CC(=O)NCc3ccccc3)c3cc(Br)ccc32)C1 [Example 226] |  | 8.23 | 1.66 | 
21 | C=CC(=O)N1CC(NC(=O)Cn2c3c(c4cc(Br)ccc42)CCN(C(=O)OCc2ccccc2)C3)C1 [Example 227] |  | 12.3 | 2.61 | 

Row | SMILES | IC50 [2, 3] [µM] | IC50 [2, 4] [µM] | IC50 [2, 5] [µM] | also measured
22 | C=CC(=O)N1CC(NC(=O)Cn2c(C)c(-c3cnccc3C3=CCCCCC3)c3cc(Cl)cc(C)c32)C1 [Example 340] | 0.89 |  |  | 
23 | C=CC(=O)N1CC(NC(=O)Cn2cc(Br)c3cc([N+](=O)[O-])ccc32)C1 [Example 233] |  | 11.4 | 1.58 | IC50 [2, 7]: > 250 µM
24 | C=CC(=O)N1CC(NC(=O)Cn2cc(-c3ccc4ccccc4c3)c3cc(Br)cc(C)c32)C1 [Example 264] |  | 9.6 | 2.75 | 
25 | C=CC(=O)N1CC(NC(=O)Cn2c3c(c4cc(Br)ccc42)C=NCC3)C1 [Example 238] |  | 73.1 | 9.89 | 
26 | C=CC(=O)N1CC(NC(=O)Cn2ccc3cc(Br)cc(C)c32)C1 [Example 190] |  | 16 | 1.76 | IC50 [2, 7]: 193 µM
27 | C=CC(=O)N1CC(NC(=O)Cn2c(C)c(-c3cnccc3C3=CCC(C)CC3)c3cc(Cl)cc(C)c32)C1 (stereo not shown) [Example 334] | 0.37 |  |  | 
28 | C=CC(=O)N1CC(NC(=O)Cn2ccc3ccccc32)C1 [Example 183] |  | > 250 | > 250 | 
29 | C=CC(=O)N1CC(N(C)C(=O)Cn2cc(C)c3cc(Br)ccc32)C1 [Example 355] | 155 |  |  | IC50 [2, 6]: 1.7 µM
30 | C=CC(=O)N1CC(NC(=O)Cn2cc(-c3cnn(C)c3)c3cc(Cl)ccc32)C1 [Example 197] |  | 24.5 | 5.51 | 
31 | C=CC(=O)N1CC(NC(=O)Cn2cc(CC(=O)N3CCC(c4ncc[nH]4)CC3)c3cc(Br)ccc32)C1 [Example 327] | 45.9 |  |  | 
32 | C=CC(=O)N1CC(NC(=O)Cn2cc(-c3ccccc3OC)c3cc(-c4ccccc4OC)ccc32)C1 [Example 209] |  | 14.1 | 3.01 | 
33 | C=CC(=O)N1CC(NC(=O)Cn2c(C)c(-c3cccnc3Br)c3cc(Cl)ccc32)C1 [Example 305] |  |  |  | IC50 [2, 8]: 2.98 µM; IC50 [2, 6]: 0.81 µM
34 | C=CC(=O)N1CC(NC(=O)Cn2ccc3cc(-c4ccccc4)ccc32)C1 [Example 237] |  | > 250 | > 250 | 
35 | C=CC(=O)N1CC(NC(=O)Cn2c(-c3ccncc3)cc3ccccc32)C1 [Example 215] |  | > 250 | > 250 | 
36 | C=CC(=O)N1CC(NC(=O)Cn2c(C)c(-c3ccccc3Cc3ccccc3)c3cc(Cl)cc(C)c32)C1 [Example 336] | 2.11 |  |  | 
37 | C=CC(=O)N1CC(NC(=O)Cn2c(C#N)c(I)c3cc(Br)ccc32)C1 [Example 304] |  |  |  | IC50 [2, 8]: 7.24 µM; IC50 [2, 6]: 1.24 µM
38 | C=CC(=O)N1CC(NC(=O)Cn2c(C3CC3)c(-c3cnccc3C(C)C)c3cc(Cl)cc(C)c32)C1 [Example 324] | 2.42 |  |  | 
39 | C=CC(=O)N1CC(N(C)C(=O)Cn2ccc3cc(Br)cc(C)c32)C1 [Example 351] | > 250 |  |  | IC50 [2, 6]: 3.32 µM
40 | C=CC(=O)N1CC(NC(=O)Cn2c(C)c(-c3cnccc3C#N)c3cc(Cl)ccc32)C1 [Example 314] |  |  |  | IC50 [2, 8]: 11.7 µM
41 | C=CC(=O)N1CC(NC(=O)Cn2cc(CC(=O)N3CCCCC3CN3CCCCC3)c3cc(Br)ccc32)C1 (stereo not shown) [Example 326] | 26.1 |  |  | 
42 | C=CC(=O)N1CC(NC(=O)Cn2c(C)c(CN3CCN(c4ccc(C#N)cn4)CC3)c3cc(Br)ccc32)C1 [Example 315] |  |  |  | IC50 [2, 8]: 6.22 µM

Row | SMILES | IC50 [2, 3] [µM] | IC50 [2, 4] [µM] | IC50 [2, 5] [µM] | also measured
43 | C=CC(=O)N1CC(NC(=O)Cn2c(C)cc3cc(Br)ccc32)C1 [Example 347] | > 250 |  |  | IC50 [2, 6]: 1.47 µM
44 | C=CC(=O)N1CC(NC(=O)Cn2c(C)c(C(=O)OC(C)(C)C)c3cc([N+](=O)[O-])ccc32)C1 [Example 278] |  |  |  | IC50 [2, 8]: 105 µM; IC50 [2, 6]: > 250 µM
45 | C=CC(=O)N1CC(NC(=O)Cn2cc(CC(=O)N3CCc4ccc(C(=O)O)cc4C3)c3cc(Br)ccc32)C1 [Example 330] | 36.6 |  |  | 
46 | C=CC(=O)N1CC(NC(=O)Cn2cc(CC(=O)N3CCC4(CCOCC4)C3)c3cc(Br)ccc32)C1 [Example 328] | 31 |  |  | 
47 | C=CC(=O)N1CC(NC(=O)Cn2c(C=O)cc3cc(Br)ccc32)C1 [Example 185] |  | > 250 | 15.9 | 
48 | C=CC(=O)N1CC(NC(=O)Cn2c3ccc(Br)cc3c3ccc(Oc4ccc(F)cc4)nc32)C1 [Example 234] |  | > 250 | 0.32 | 
49 | C=CC(=O)N1CC(NC(=O)Cn2c(C(=O)OC)cc3cc(Br)ccc32)C1 [Example 181] |  | > 250 | 6.47 | 
50 | C=CC(=O)N1CC(NC(=O)Cn2cc(CC#N)c3cc(Br)ccc32)C1 [Example 214] |  | 33.8 | 4.48 | 
51 | C=CC(=O)N1CC(NC(=O)Cn2c3c(c4cc(Br)ccc42)CN(C(C)=O)CC3)C1 [Example 251] |  | > 250 | 7.91 | 
52 | C=CC(=O)N1CC(NC(=O)Cn2ccc3cc(I)ccc32)C1 [Example 188] |  | 22.2 | 3.71 | 
53 | C=CC(=O)N1CC(NC(=O)Cn2cc(-c3c(C)ccc4cn[nH]c34)c3cc(-c4c(C)ccc5cn[nH]c45)ccc32)C1 [Example 205] |  | 80.5 | 11.4 | 
54 | C=CC(=O)N1CC(NC(=O)Cn2c(C)c(-c3cccnc3N3CCC(C)CC3)c3cc(Cl)cc(C)c32)C1 [Example 344] | 0.88 |  |  | 
55 | C=CC(=O)N1CC(NC(=O)Cn2cc(CC(=O)N3CCc4cn[nH]c4C3)c3cc(Br)ccc32)C1 [Example 332] | 43.3 |  |  | 
56 | C=CC(=O)N1CC(NC(=O)Cn2c(C(=O)NCc3ccc(C(=O)O)s3)cc3cc(Br)ccc32)C1 [Example 225] |  | > 250 | 19.8 | 
57 | C=CC(=O)N1CC(NC(=O)Cn2ccc3cc(C#N)ccc32)C1 [Example 191] |  | > 250 | > 250 | 
58 | C=CC(=O)N1CC(NC(=O)Cn2ccc3cc(Br)ccc32)C1C (stereo not shown) [Example 361] | 231 |  |  | IC50 [2, 6]: 3.04 µM
59 | C=CC(=O)N1CC(NC(=O)Cn2cc(-c3cccnc3)c3cc(-c4cccnc4)ccc32)C1 [Example 207] |  | 164 | 18.2 | 
60 | C=CC(=O)N1C[C@@H](NC(=O)Cn2ccc3cc(Br)ccc32)[C@H]1C [Example 362] | > 250 |  |  | IC50 [2, 6]: > 250 µM
61 | C=CC(=O)N1CC(NC(=O)Cn2c(C)c(-c3cncnc3C(C)C)c3cc(Cl)cc(C)c32)C1 [Example 338] | 2.87 |  |  | 
62 | C=CC(=O)N1CC(NC(=O)Cn2ccc3cccc(CC#N)c32)C1 [Example 360] | > 250 |  |  | IC50 [2, 6]: > 250 µM
63 | C=CC(=O)N1CC(NC(=O)Cn2ccc3ccc(Cl)cc32)C1 [Example 202] |  | > 250 | > 250 | 
